Reference: the NIST ThermoML archive (doi:10.1021/je034177v)

Tests used:
[1] = molar heat capacity at constant pressure; details: 101 kPa, Liquid, Small sample (50 mg) DSC
[2] = 101 kPa, Liquid; for speed of sound: Pulse-echo method; for mass density: Vibrating tube method
[3] = xn = mol fraction of the nth substance listed; details: 101 kPa, Liquid, x2 = 0; for speed of sound: Pulse-echo method; for mass density: Vibrating tube method
[4] = molar heat capacity at constant pressure; xn = mol fraction of the nth substance listed; details: 101 kPa, Liquid, Small sample (50 mg) DSC, x2 = 0

ClCCCCCCl [1,5-dichloropentane]
Details | mass density, [2] [kg/m3] | molar heat capacity at constant pressure, [1] [J/K/mol] | speed of sound, [2] [m/s]
278.15 K | 1115.28 | – | 1376.6
283.15 K | 1110.26 | 209.65 | 1358.9
288.15 K | 1105.2 | 210.73 | 1341
293.15 K | 1100.16 | 211.89 | 1323.2
298.15 K | 1095.11 | 212.94 | 1305.4
303.15 K | 1090.07 | 214.06 | 1287.9
308.15 K | 1085.02 | 215.21 | 1270.3
313.15 K | 1079.97 | 216.38 | 1253
318.15 K | 1074.95 | 217.56 | 1235.8
323.15 K | 1069.89 | 218.76 | 1218.7
328.15 K | 1064.93 | – | 1201.6

ClCCCCCCCl [1,6-dichlorohexane]
Details | mass density, [2] [kg/m3] | molar heat capacity at constant pressure, [1] [J/K/mol] | speed of sound, [2] [m/s]
278.15 K | 1082.7 | – | 1387.4
283.15 K | 1077.97 | 236.59 | 1370
288.15 K | 1073.22 | 237.9 | 1352.3
293.15 K | 1068.47 | 239.26 | 1334.8
298.15 K | 1063.74 | 240.6 | 1317.3
303.15 K | 1059 | 241.94 | 1299.9
308.15 K | 1054.25 | 243.37 | 1282.7
313.15 K | 1049.5 | 244.81 | 1265.7
318.15 K | 1044.78 | 246.28 | 1248.7
323.15 K | 1040.03 | 247.76 | 1231.8
328.15 K | 1035.37 | – | 1215.1

CCCCCCCCCCCC [dodecane]
Details | mass density, [2] [kg/m3] | molar heat capacity at constant pressure, [1] [J/K/mol] | speed of sound, [2] [m/s]
278.15 K | 759.56 | – | 1357
283.15 K | 755.96 | 368.47 | 1337.4
288.15 K | 752.36 | 370.48 | 1317.6
293.15 K | 748.74 | 372.74 | 1298
298.15 K | 745.14 | 375.04 | 1278.5
303.15 K | 741.52 | 377.43 | 1259.2
308.15 K | 737.88 | 380.02 | 1240
313.15 K | 734.24 | 382.73 | 1221
318.15 K | 730.6 | 385.48 | 1202.3
323.15 K | 726.95 | 388.29 | 1183.6
328.15 K | 723.29 | – | 1165.1

CCCCCCCCCCCC [dodecane] + ClCCCCCCCl
Details | mass density, [3] [kg/m3] | molar heat capacity at constant pressure, [4] [J/K/mol] | speed of sound, [3] [m/s]
278.15 K | 759.56 | – | 1357
283.15 K | 755.96 | 368.47 | 1337.4
288.15 K | 752.36 | 370.48 | 1317.6
293.15 K | 748.74 | 372.74 | 1298
298.15 K | 745.14 | 375.04 | 1278.5
303.15 K | 741.52 | 377.43 | 1259.2
308.15 K | 737.88 | 380.02 | 1240
313.15 K | 734.24 | 382.73 | 1221
318.15 K | 730.6 | 385.48 | 1202.3
323.15 K | 726.95 | 388.29 | 1183.6
328.15 K | 723.29 | – | 1165.1

CCCCCCCCCCCC [dodecane] + ClCCCCCCl
Details | mass density, [3] [kg/m3] | molar heat capacity at constant pressure, [4] [J/K/mol] | speed of sound, [3] [m/s]
278.15 K | 759.56 | – | 1357
283.15 K | 755.96 | 368.47 | 1337.4
288.15 K | 752.36 | 370.48 | 1317.6
293.15 K | 748.74 | 372.74 | 1298
298.15 K | 745.14 | 375.04 | 1278.5
303.15 K | 741.52 | 377.43 | 1259.2
308.15 K | 737.88 | 380.02 | 1240
313.15 K | 734.24 | 382.73 | 1221
318.15 K | 730.6 | 385.48 | 1202.3
323.15 K | 726.95 | 388.29 | 1183.6
328.15 K | 723.29 | – | 1165.1
